Experimental data from US10167279B2 (NOVARTIS AG, priority 2014, dated 2019).

Assays:
b-Raf (V600E) = b-Raf (V600E) (Homo sapiens (Human), UniProt P15056, V600E); assay: In vitro Raf activity determination (Alpha Screen, phospho-MEK), b-Raf (V600E); type: biochemical; settings: ATP 10 μM, 60 min pre-incubation, 3 hours reaction
Excerpt: The activity of a compound according to the present invention can be assessed by well-known in vitro & in vivo methods. Raf inhibition data provided herein was obtained using the following procedures.
Sf9 cells co-expressing both proteins were lysed and subjected to immobilized nickel chromatography and eluted with Imidazole. A second column (StrepII binding column) was used and eluted with desthiobiotin. Protein Tags were removed using Prescission enzyme and the protein was further purified using a flowthrough step to remove tags.
Full length MEK1 with an inactivating K97R ATP binding site mutation is utilized as a RAF substrate. The MEK1 cDNA was subcloned with an N-terminal (his)6 tag into a vector for E. Coli expression. The MEK1 substrate was purified from E. Coli lysate by nickel affinity chromatography followed by anion exchange. The final MEK1 preparation was biotinylated (Pierce EZ-Link Sulfo-NHS-LC-Biotin) and concentrated.
The plate was incubated for 60 minutes at room temperature. […] The additions were carried out under dark conditions to protect the detection beads from light. A lid was placed on top of the plate and incubated for 1 hour at room temperature, after which the luminescence was read on a PerkinElmer Envision instrument.

C-Raf FL = C-Raf FL (Homo sapiens (Human), UniProt P04049, Y340E/Y341E); assay: In vitro Raf activity determination (Alpha Screen, phospho-MEK), C-Raf FL (full length, Y340E/Y341E); type: biochemical; settings: ATP 1 μM; 60 min pre-incubation; 1 hour reaction; column head does not say FL or TR
C-Raf FL, sequence (P04049 whole entry Y340E/Y341E): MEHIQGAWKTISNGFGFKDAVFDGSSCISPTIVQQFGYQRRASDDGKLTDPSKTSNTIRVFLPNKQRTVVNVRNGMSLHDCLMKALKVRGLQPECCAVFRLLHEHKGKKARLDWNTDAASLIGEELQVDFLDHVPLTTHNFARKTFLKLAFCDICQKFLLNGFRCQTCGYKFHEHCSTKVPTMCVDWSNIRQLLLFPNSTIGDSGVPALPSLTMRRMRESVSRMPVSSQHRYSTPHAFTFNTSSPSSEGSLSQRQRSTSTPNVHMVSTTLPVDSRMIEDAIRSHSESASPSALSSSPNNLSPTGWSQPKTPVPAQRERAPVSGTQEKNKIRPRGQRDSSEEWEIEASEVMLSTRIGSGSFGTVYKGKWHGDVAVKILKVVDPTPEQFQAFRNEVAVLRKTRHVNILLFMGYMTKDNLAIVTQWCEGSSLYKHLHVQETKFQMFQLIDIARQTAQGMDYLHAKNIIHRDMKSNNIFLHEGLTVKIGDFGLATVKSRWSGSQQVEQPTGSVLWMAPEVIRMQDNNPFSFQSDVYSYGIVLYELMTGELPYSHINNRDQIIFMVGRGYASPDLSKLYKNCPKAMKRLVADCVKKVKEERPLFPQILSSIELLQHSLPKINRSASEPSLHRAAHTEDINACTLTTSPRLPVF
C-Raf FL, sequence (P63104 whole entry partner): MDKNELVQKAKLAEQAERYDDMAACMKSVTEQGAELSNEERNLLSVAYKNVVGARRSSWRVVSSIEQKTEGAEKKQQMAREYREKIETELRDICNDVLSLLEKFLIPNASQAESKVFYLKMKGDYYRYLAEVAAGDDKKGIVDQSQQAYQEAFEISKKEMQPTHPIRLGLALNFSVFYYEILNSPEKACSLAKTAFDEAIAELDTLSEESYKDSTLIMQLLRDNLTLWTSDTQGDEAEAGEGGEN
In short: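 Read-out is AlphaScreen luminescence using rabbit anti-p-MEK with protein A beads after EDTA stop, with IC50 fitted by non-linear regression. Reaction: Sf9-derived C-Raf plus biotinylated E. coli MEK1 K97R substrate, pH 7.5 Tris/MgCl2/DTT buffer, compound preincubated 60 min at room temperature.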

b-Raf (V600E), sequence (P15056 whole entry V600E): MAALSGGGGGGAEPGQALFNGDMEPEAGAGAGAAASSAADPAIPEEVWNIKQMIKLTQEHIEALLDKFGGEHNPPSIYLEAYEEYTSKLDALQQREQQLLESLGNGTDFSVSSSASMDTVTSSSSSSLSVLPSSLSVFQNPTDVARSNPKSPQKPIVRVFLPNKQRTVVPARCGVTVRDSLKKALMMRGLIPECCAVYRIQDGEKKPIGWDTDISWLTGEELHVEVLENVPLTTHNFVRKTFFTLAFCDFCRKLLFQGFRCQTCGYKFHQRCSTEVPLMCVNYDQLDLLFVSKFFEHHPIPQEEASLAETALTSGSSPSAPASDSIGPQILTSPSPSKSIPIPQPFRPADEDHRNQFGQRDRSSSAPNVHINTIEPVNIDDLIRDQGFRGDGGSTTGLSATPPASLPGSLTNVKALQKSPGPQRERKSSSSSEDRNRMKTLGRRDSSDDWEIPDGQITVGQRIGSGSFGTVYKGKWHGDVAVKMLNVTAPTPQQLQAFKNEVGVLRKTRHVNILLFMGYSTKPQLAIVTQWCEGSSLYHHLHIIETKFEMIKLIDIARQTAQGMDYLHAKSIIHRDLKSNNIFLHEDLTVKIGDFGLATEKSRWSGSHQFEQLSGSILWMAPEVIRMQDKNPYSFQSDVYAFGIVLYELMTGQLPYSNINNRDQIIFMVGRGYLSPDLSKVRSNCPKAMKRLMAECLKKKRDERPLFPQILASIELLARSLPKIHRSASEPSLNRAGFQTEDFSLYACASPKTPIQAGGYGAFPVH

Row | SMILES | IC50 (b-Raf (V600E)) [nM] | IC50 (C-Raf FL) [nM]
1 | COc1ncc(-c2cc(NC(=O)c3ccnc(C(F)F)c3)ccc2C)cc1C1(O)COC1 [Example 98, 2-(difluoromethyl)-N-(3-(5-(3-hydroxyoxetan-3-yl)-6-methoxypyridin-3-yl)-4-methylphenyl)isonicotin-amide] | 13.1 | 1.11
2 | COc1ncc(-c2cc(NC(=O)c3cc(C(F)(F)F)ccn3)ccc2C)cc1C1(O)COC1 [Example 84, N-(3-(5-(3-hydroxyoxetan-3-yl)-6-methoxypyridin-3-yl)-4-methylphenyl)-4-(trifluoromethyl)picolin-amide] | 2.21 | 0.351
3 | Cc1ccc(NC(=O)c2ccnc(C(C)(C)C#N)c2)cc1-c1cnc(OC2CCOCC2)c(C2(O)COC2)c1 [Example 33, 2-(2-cyanopropan-2-yl)-N-(3-(5-(3-hydroxyoxetan-3-yl)-6-((tetrahydro-2H-pyran-4-yl)oxy)pyridin-3-yl)-4-methylphenyl)isonicotin-amide] | 2.14 | 0.804
4 | CCOc1ncc(-c2cc(NC(=O)c3ccnc(C(F)(F)F)c3)cnc2C)cc1C1(C)COC1 [Example 63, N-(6′-ethoxy-2-methyl-5′-(3-methyloxetan-3-yl)-[3,3′-bipyridin]-5-yl)-2-(trifluoromethyl)isonicotin-amide] | 0.613 | 0.183
5 | COc1ncc(-c2cc(NC(=O)c3ccnc(C(C)(F)F)c3)ccc2C)cc1C1(CF)COC1 [Example 103, 2-(1,1-difluoroethyl)-N-(3-(5-(3-(fluoromethyl)oxetan-3-yl)-6-methoxypyridin-3-yl)-4-methylphenyl)isonicotin-amide] | 0.293 | 0.0844
6 | Cc1ncc(NC(=O)c2ccnc(C(C)(F)F)c2)cc1-c1cccc(C2COC2)c1 [Example 70, 2-(1,1-difluoroethyl)-N-(6-methyl-5-(3-(oxetan-3-yl)phenyl)pyridin-3-yl)isonicotinamide] | 12.9 | 1.59
7 | Cc1ncc(NC(=O)c2ccnc(C(C)(F)F)c2)cc1-c1cnc(OCCO)c(C2(F)COC2)c1 [Example 39, 7-(1,1-difluoroethyl)-N-(5′-(3-fluorooxetan-3-yl)-6′-(2-hydroxyethoxy)-2-methyl-[3,3′-bipyridin]-5-yl)isonotinamide] | 5.9 | 1.17
8 | COc1cc(-c2cc(NC(=O)c3cccc(C(F)(F)F)c3)cnc2C)cc(C2COC2)c1 [Example 20, N-(5-(3-methoxy-5-(oxetan-3-yl)phenyl)-6-methylpyridin-3-yl)-3-(trifluoromethyl)-benzamide] | 6.88 | 0.628
9 | Cc1ccc(NC(=O)c2ccnc(C(C)(C)C#N)c2)cc1-c1cc(C2(C)COC2)c2nccn2n1 [Example 29, 2-(2-cyanopropan-2-yl)-N-(4-methyl-3-(8-(3-methyloxetan-3-yl)imidazo[1,2-b]pyridazin-6-yl)phenyl)isonicotinamide] | 4.95 | 0.637
10 | CCOc1ncc(-c2cc(NC(=O)c3ccnc(C(C)(F)F)c3)ccc2C)cc1C1(O)COC1 [Example 123, 2-(1,1-difluoroethyl)-N-(3-(6-ethoxy-5-(3-hydroxyoxetan-3-yl)pyridin-3-yl)-4-methylphenyl)isonicotin-amide] | 1.22 | 0.165
11 | COc1ncc(-c2cc(NC(=O)c3cccc(C(F)(F)F)c3)cnc2C)cc1C1(CF)COC1 [Example 49, N-(5′-(3-(fluoromethyl)oxetan-3-yl)-6′-methoxy-2-methyl-[3,3′-bipyridin]-5-yl)-3-(trifluoromethyl)benzamide] | 0.469 | 0.118
12 | Cc1ncc(NC(=O)c2ccnc(C(F)(F)F)c2)cc1-c1cnc(OCCO)c(C2(F)COC2)c1 [Example 38, N-(5′-(3-fluorooxetan-3-yl)-6′-(2-hydroxyethoxy)-2-methyl-[3,3′-bipyridin]-5-yl)-2-(trifluoromethyl)isonicotin-amide] | 4.84 | 0.729
13 | CCOc1nnc(-c2cc(NC(=O)c3cc(CN(C)C)cc(C(F)(F)F)c3)cnc2C)cc1C1(C)COC1 [Example 129, 3-((dimethylamino)methyl)-N-(5-(6-ethoxy-5-(3-methyloxetan-3-yl)pyridazin-3-yl)-6-methylpyridin-3-yl)-5-(trifluoromethyl)benzamide] | 23.4 | 3.54
14 | Cc1ncc(NC(=O)c2cccc(C(F)(F)F)c2)cc1-c1cccc(C2(C)COC2)c1 [Example 24] | 3.52 | 0.455
15 | Cc1ccc(NC(=O)c2ccnc(C(C)(C)C#N)c2)cc1-c1cccc(C2COC2)c1 [Example 28, 2-(2-cyanopropan-2-yl)-N-(6-methyl-3′-(oxetan-3-yl)-[1,1′-biphenyl]-3-yl)isonicotinamide] | 25000 | 25000
16 | Cc1ccc(NC(=O)c2ccnc(C(C)(C)C#N)c2)cc1-c1cccc(C2(C)COC2)c1 [Example 27, 2-(2-cyanopropan-2-yl)-N-(6-methyl-3′-(3-methyloxetan-3-yl)-[1,1′-biphenyl]-3-yl)isonicotinamide] | 1210 | 263
17 | COc1ncc(-c2cc(NC(=O)c3ccnc(C(C)(C)F)c3)ccc2C)cc1C1(C#N)COC1 [Example 111, N-(3-(5-(3-cyanooxetan-3-yl)-6-methoxypyridin-3-yl)-4-methylphenyl)-2-(2-fluoropropan-2-yl)isonicotinamide] | 2.75 | 0.716
18 | Cc1ncc(NC(=O)c2cc(C(C)(C)C#N)ccn2)cc1-c1cccc(C2(C)COC2)c1 [Example 126, 4-(2-cyanopropan-2-yl)-N-(6-methyl-5-(3-(3-methyloxetan-3-yl)phenyl)pyridin-3-yl)picolinamide] | 7.74 | 1.97
19 | CCOc1ncc(-c2cc(NC(=O)c3cnnc(C(F)(F)F)c3)ccc2C)cc1C1(C)COC1 [Example 67, N-(3-(6-ethoxy-5-(3-methyloxetan-3-yl)pyridin-3-yl)-4-methylphenyl)-6-(trifluoromethyl)pyridazine-4-carboxamide] | 0.304 | 0.078
20 | COc1ncc(-c2cc(NC(=O)c3cc(C(C)(C)C#N)ccn3)ccc2C)cc1C1(F)COC1 [Example 87] | 3.56 | 0.622
21 | CCOc1ncc(-c2cc(NC(=O)c3ccnc(C(C)(C)F)c3)cnc2C)cc1C1(CF)COC1 [Example 131, N-(6′-ethoxy-5′-(3-(fluoromethyl)oxetan-3-yl)-2-methyl-[3,3′-bipyridin]-5-yl)-2-(2-fluoropropan-2-yl)isonicotinamide] | 1.3 | 0.31
22 | Cc1ncc(NC(=O)c2cccc(C(F)(F)F)c2)cc1-c1cnc(OCCO)c(C2(O)COC2)c1 [Example 36, N-(6′-(2-hydroxyethoxy)-5′-(3-hydroxyoxetan-3-yl)-2-methyl-[3,3′-bipyridin]-5-yl)-3-(trifluoromethyl)benzamide] | 12 | 1.84
23 | Cc1ncc(NC(=O)c2cccc(C(F)(F)F)c2)cc1-c1cc(C2(F)COC2)c(=O)n(CCCO)c1 [Example 44, N-(5′-(3-fluorooxetan-3-yl)-1′-(3-hydroxypropyl)-2-methyl-6′-oxo-1′,6′-dihydro-[3,3′-bipyridin]-5-yl)-3-(trifluoromethyl)benzamide] | 67.9 | 8.63
24 | COc1ncc(-c2cc(NC(=O)c3ccnc(C(C)(C)F)c3)ccc2C)cc1C1(O)COC1 [Example 99, 2-(2-fluoropropan-2-yl)-N-(3-(5-(3-hydroxyoxetan-3-yl)-6-methoxypyridin-3-yl)-4-methylphenyl)isonicotin-amide] | 2.67 | 0.415
25 | COc1ncc(-c2cc(NC(=O)c3cc(C(C)(C)O)ccn3)ccc2C)cc1C1(F)COC1 [Example 96, N-(3-(5-(3-fluorooxetan-3-yl)-6-methoxypyridin-3-yl)-4-methylphenyl)-4-(2-hydroxypropan-2-yl)picolinamide] | 4.17 | 0.482
26 | Cc1ncc(NC(=O)c2cccc(C(F)(F)F)c2)cc1-c1cc(C2(F)COC2)c(=O)n(CC(O)CO)c1 (centres unmarked) [Example 45, N-(1′-(2,3-dihydroxypropyl)-5′-(3-fluorooxetan-3-yl)-2-methyl-6′-oxo-1′,6′-dihydro-[3,3′-bipyridin]-5-yl)-3-(trifluoromethyl)benzamide] | 1180 | 121
27 | Cc1ncc(NC(=O)c2cccc(C(F)(F)F)c2)cc1-c1cnc(OC2CCOCC2)c(C2(O)COC2)c1 [Example 118, N-(5′-(3-hydroxyoxetan-3-yl)-2-methyl-6′-((tetrahydro-2H-pyran-4-yl)oxy)-[3,3′-bipyridin]-5-yl)-3-(trifluoromethyl)benzamide] | 3.89 | 0.562
28 | COc1ncc(-c2cc(C(=O)Nc3cccc(C(C)(C)C#N)c3)ccc2C)cc1C1(O)COC1 [Example 146, N-(3-(2-cyanopropan-2-yl)phenyl)-3-(5-(3-hydroxyoxetan-3-yl)-6-methoxypyridin-3-yl)-4-methylbenzamide] | 3.31 | 0.801
